# Experimental data as given in patent publication US4113946A, “Δ^2,3 -1,4-Morpholine-2-carboxylic acid derivatives as antibacterial agents” (Bristol-Myers Company, priority 1977, dated 1978).
# Where a name gives a salt, the structure may show the parent alone. Read-outs that look alike come from different tables or passages of the source.
# Tests used:
# D. pneumoniae A9585 = assay: M.I.C. by tube dilution, D. pneumoniae A9585; format: cell-based; details: for MIC: Streptococcus pneumoniae, A9585
# Str. pyogenes A9604 = assay: M.I.C. by tube dilution, Str. pyogenes A9604; format: cell-based; details: Streptococcus pyogenes
# S. aureus Smith A9537 = assay: M.I.C. by tube dilution, S. aureus Smith A9537; format: cell-based; details: for MIC: Staphylococcus aureus
# S. aureus BX1633-2 A9606 = assay: M.I.C. by tube dilution, S. aureus BX1633-2 A9606; format: cell-based; details: overnight 37° C.; for MIC: Staphylococcus aureus
# Sal. enteritidis A9531 = assay: M.I.C. by tube dilution, Sal. enteritidis A9531; format: cell-based; details: for MIC: Salmonella enterica, ENTERITIDIS
# E. coli Juhl A15119 = assay: M.I.C. by tube dilution, E. coli Juhl A15119; format: cell-based; details: for MIC: Escherichia coli, JUHLA15119
# E. coli A9675 = assay: M.I.C. by tube dilution, E. coli A9675; format: cell-based; details: Escherichia coli
# K. pneumoniae A9977 = assay: M.I.C. by tube dilution, K. pneumoniae A9977; format: cell-based; details: Klebsiella pneumoniae
# K. pneumoniae A15130 = assay: M.I.C. by tube dilution, K. pneumoniae A15130; format: cell-based; details: Klebsiella pneumoniae
# Pr. mirabilis A9900 = assay: M.I.C. by tube dilution, Pr. mirabilis A9900; format: cell-based; details: Proteus mirabilis
# Pr. morganii A15153 = assay: M.I.C. by tube dilution, Pr. morganii A15153; format: cell-based; details: Morganella morganii
# Ps. aeruginosa A9843A = assay: microbe, parasite or virus in culture; format: cell-based; details: Pseudomonas aeruginosa
# Ser. marcescens A20019 = assay: M.I.C. by tube dilution, Ser. marcescens A20019; format: cell-based; details: Serratia marcescens
# [1] = system: S. aureus meth.-resist; A15097; assay: M.I.C. by tube dilution, S. aureus meth.-resist A15097; format: cell-based; details: Staphylococcus aureus, at 10^-3 dil'n, overnight 37° C.
# Ent. cloacae A9656 = assay: M.I.C. by tube dilution, Ent. cloacae A9656; format: cell-based; details: Enterobacter cloacae
# Ent. cloacae A9657 = assay: M.I.C. by tube dilution, Ent. cloacae A9657; format: cell-based; details: Enterobacter cloacae
# Ent. cloacae A9659 = assay: M.I.C. by tube dilution, Ent. cloacae A9659; format: cell-based; details: Enterobacter cloacae, A9659, overnight 37° C.
# in vivo = details: mouse, po, 100 mg/kg
# [2] = +5% serum, 50% Nutrient Broth - 45% Antibiotic Assay Broth, overnight 37° C., read-out: M.I.C.
# [3] = SMITHA9537, +50% serum, at 10^-4 dilution, overnight 37° C.
# [4] = SMITHA9537, at 10^-4 dilution, overnight 37° C., read-out: M.I.C.
# [5] = BX16332A9606, at 10^-3 dil'n, read-out: M.I.C.
# [6] = at 10^-4 dilution, overnight 37° C., read-out: M.I.C.
# [7] = overnight 37° C., read-out: M.I.C.
# [8] = A9657, overnight 37° C., read-out: M.I.C.
# [9] = SMITHA9537, +50% serum, at 10^-4 dilution, overnight 37° C., read-out: M.I.C.
# [10] = SMITHA9537, at 10^-4 dilution, overnight 37° C.
# [11] = BX16332A9606, at 10^-2 dil'n, read-out: M.I.C.
# [12] = Table 9, compound of Ex. No., serum not given, read-out: M.I.C. D. pneumoniae A9585
# [13] = SMITHA9537, Table 9, compound of Ex. No., serum and dilution not given, read-out: M.I.C. S. aureus A9537
# [14] = Table 9, compound of Ex. No., dilution not given, read-out: M.I.C. Sal. enteritidis A9531
# [15] = Table 9, compound of Ex. No., dilution not given, read-out: M.I.C. E. coli A15119
# [16] = Table 9, compound of Ex. No., dilution not given
Structure (SMILES),MIC (D. pneumoniae A9585; [2]) [µg/mL],MIC (Str. pyogenes A9604; [2]) [µg/mL],MIC (S. aureus Smith A9537; [3]) [µg/mL],MIC (S. aureus Smith A9537; [4]) [µg/mL],"MIC (S. aureus BX1633-2 A9606; BX16332A9606, at 10^-2 dil'n) [µg/mL]",MIC (Sal. enteritidis A9531) [µg/mL],MIC (E. coli Juhl A15119; [6]) [µg/mL],MIC (E. coli A9675) [µg/mL],MIC (K. pneumoniae A9977) [µg/mL],MIC (K. pneumoniae A15130) [µg/mL],MIC (Pr. morganii A15153) [µg/mL],MIC (Ps. aeruginosa A9843A) [µg/mL],MIC (Ser. marcescens A20019) [µg/mL],MIC [1] [µg/mL],"MIC (S. aureus BX1633-2 A9606; BX16332A9606, at 10^-3 dil'n) [µg/mL]",MIC (Pr. mirabilis A9900) [µg/mL],MIC (Pr. morganii A15153; [6]) [µg/mL],MIC (E. coli Juhl A15119) [µg/mL],MIC (Ent. cloacae A9656) [µg/mL],MIC (Ent. cloacae A9659) [µg/mL],other results
"O=C(COc1ccccc1)N[C@@H]1C(=O)N2C(C(=O)O)=COC[C@H]12 (relative stereo) [BC-L2, potassium 7 β-phenoxyacetamido-Δ^3 -O-2-isocephem-4-carboxylate]",0.6,0.6,1,1.3,> 125,16,63,> 125,32,> 125,> 125,> 125,> 125,> 125,,,,,,,MIC (S. aureus BX1633-2 A9606; [5]): 2.5 µg/mL; MIC (Pr. mirabilis A9900; [6]): 63 µg/mL
"CC1=C(C(=O)O)N2C(=O)[C@@H](NC(=O)COc3ccccc3)[C@H]2CO1 (relative stereo) [BC-L8, 7β-phenoxyacetamido-3-methyl-O-2-isocephem-4-carboxylic acid]",0.5,0.5,2,0.5,32,8,63,,32,,,500,,32,2,16,500,,,,MIC (E. coli A9675; [6]): 250 µg/mL; MIC (K. pneumoniae A15130; [6]): 500 µg/mL; MIC (Ser. marcescens A20019; [6]): 500 µg/mL; MIC (Ent. cloacae A9656; [7]): 500 µg/mL; MIC (Ent. cloacae A9657; [8]): 63 µg/mL; MIC (Ent. cloacae A9659; read-out: M.I.C.): 500 µg/mL
"COC(=O)CC1=C(C(=O)O)N2C(=O)[C@@H](NC(=O)COc3ccccc3)[C@H]2CO1 (relative stereo) [BC-L33, 7β-Phenoxyacetamido-3-carbomethoxymethylene-Δ^3 -O-2-isocephem-4-carboxylic acid]",0.06,0.06,1,0.25,> 125,8,,> 125,,> 125,> 125,> 125,> 125,> 125,16,32,,125,> 125,> 125,MIC (K. pneumoniae A9977; [6]): 63 µg/mL; MIC (Ent. cloacae A9657; A9657): > 125 µg/mL
"N[C@@H](C(=O)N[C@@H]1C(=O)N2C(C(=O)O)=COC[C@H]12)c1ccccc1 [BC-L6, 7β-(D-α-aminophenylacetamido)-Δ^3 -O-2-isocephem-4-carboxylic acid]",,,,,,32,,,,125,,> 500,,,125,125,> 500,125,,,MIC (D. pneumoniae A9585): 16 µg/mL; MIC (Str. pyogenes A9604): 16 µg/mL; MIC (S. aureus Smith A9537; [9]): 250 µg/mL; MIC (S. aureus Smith A9537; [10]): 32 µg/mL; MIC (S. aureus BX1633-2 A9606; [11]): 500 µg/mL; MIC (E. coli A9675; [6]): 250 µg/mL; MIC (K. pneumoniae A9977; [6]): 63 µg/mL; MIC (Ser. marcescens A20019; [6]): > 500 µg/mL; MIC ([1]; read-out: M.I.C.): > 500 µg/mL
"CC1=C(C(=O)O)N2C(=O)[C@@H](NC(=O)[C@H](N)c3ccccc3)[C@H]2CO1 [BC-L9, 7β-(D-α-aminophenylacetamido)-3-methyl-Δ^3 -O-2-isocephem-4-carboxylic acid hydrochloride]",0.5,0.5,16,,32,16,,,16,,,> 500,,32,8,,250,32,,125,MIC (S. aureus Smith A9537; [10]): 2 µg/mL; MIC (E. coli A9675; [6]): 63 µg/mL; MIC (K. pneumoniae A15130; [6]): 63 µg/mL; MIC (Pr. mirabilis A9900; [6]): 63 µg/mL; MIC (Ser. marcescens A20019; [6]): 500 µg/mL; MIC (Ent. cloacae A9656; [7]): 500 µg/mL; MIC (Ent. cloacae A9657; A9657): 32 µg/mL
"O=C(COc1ccccc1)NC1C(=O)N2C(C(=O)O)=C(Cc3ccccc3)OCC12 (stereo not drawn) [BC-L17, 7β-phenoxyacetamido-3-benzyl-Δ^3 -O-2-isocephem-4-carboxylic acid]",0.25,0.25,1,0.25,> 125,32,,> 125,> 125,> 125,> 125,> 125,> 125,125,8,> 125,,> 125,> 125,> 125,MIC (Ent. cloacae A9657; A9657): > 125 µg/mL
"CC1=C(C(=O)O)N2C(=O)[C@@H](NC(=O)C(N)c3ccccc3)[C@H]2CO1 (stereo partly drawn) [BC-L45, 7β-(α-amino-α-phenylacetamido)-3-methyl-Δ^3 -O-2-isocephem-4-carboxylic acid]",< 0.25,< 0.25,8,,,,4,32,,8,,> 125,> 125,,8,8,63,,125,125,MIC (S. aureus Smith A9537; [10]): 1 µg/mL; MIC (S. aureus BX1633-2 A9606; [11]): 63 µg/mL; MIC (Sal. enteritidis A9531; [6]): 4 µg/mL; MIC (K. pneumoniae A9977; [6]): 4 µg/mL; MIC (Ent. cloacae A9657; [8]): 4 µg/mL; MIC ([1]; read-out: M.I.C.): 63 µg/mL; concentration at 0.5 h (in vivo): 19400 ng/mL; concentration at 1 h (in vivo): 15700 ng/mL; concentration at 2 h (in vivo): 7300 ng/mL; concentration at 3.5 h (in vivo): 2900 ng/mL
"O=C(COc1ccccc1)NC1C(=O)N2C(C(=O)O)=C(CCc3ccccc3)OCC12 (stereo not drawn) [BC-L54, 7β-phenoxyacetamido-3-phenethyl-Δ^3 -O-2-isocephem-4-carboxylic acid]",0.03,0.03,,0.06,> 125,> 125,0.5,> 125,> 125,> 125,> 125,> 125,> 125,125,8,> 125,,,> 125,> 125,MIC (S. aureus Smith A9537; [9]): 4 µg/mL; MIC (Ent. cloacae A9657; A9657): > 125 µg/mL
"CC1=C(C(=O)O)N2C(=O)[C@@H](NC(=O)[C@H](N)c3ccccc3)[C@H]2SC1 [Cephalexin, cephalexin, reference compound]",,,,,,,,32,,,,,,,,,,,,125,MIC (S. aureus BX1633-2 A9606; [11]): 4 µg/mL; MIC (S. aureus BX1633-2 A9606; [5]): 4 µg/mL; M.I.C. (S. aureus BX1633-2 A9606; at 10^-2 dil'n): 8 meg./ml.; M.I.C. (S. aureus BX1633-2 A9606; at 10^-3 dil'n): 2 meg./ml.; MIC (Sal. enteritidis A9531; [6]): 1 µg/mL; MIC (Ent. cloacae A9657; [8]): 2 µg/mL; MIC ([1]; read-out: M.I.C.): 63 µg/mL
"CC1=C(C(=O)O)N2C(=O)[C@@H](NC(=O)C(C(=O)O)c3ccccc3)[C@H]2CO1 (stereo partly drawn) [Example 34, 7β-[α-carboxy-α-phenylacetamido]-3-methyl-Δ^3-0-2-isocephem-4-carboxylic acid]",,,,,,,,,,,,,,,,,,,,,MIC (D. pneumoniae A9585; [12]): 4 µg/mL; MIC (S. aureus Smith A9537; [13]): 16 µg/mL; MIC (Sal. enteritidis A9531; [14]): 32 µg/mL; MIC (E. coli Juhl A15119; [15]): 125 µg/mL
"CC1=C(C(=O)O)N2C(=O)C(NC(=O)Cn3ncnn3)C2CO1 (stereo not drawn) [Example 37, 7β-[2-(2H)-tetrazolylacetamido]-3-methyl-Δ^3-0-2-isocephem-4-carboxylic acid]",,,,,,,,,,,,,,,,,,,,,"M.I.C. D. pneumoniae A9585 (D. pneumoniae A9585; Table 9, compound of Ex. No., serum not given): 125 µg/mL; M.I.C. S. aureus A9537 (S. aureus Smith A9537; Table 9, compound of Ex. No., serum and dilution not given): > 125 µg/mL; M.I.C. Sal. enteritidis A9531 (Sal. enteritidis A9531; [16]): > 125 µg/mL; M.I.C. E. coli A15119 (E. coli Juhl A15119; [16]): > 125 µg/mL"
"CCOC(=O)NC1C(=O)N2C(C(=O)O)=C(C)OCC12 (stereo not drawn) [Example 38, 7β-(Ethoxycarboxamido)-3-methyl-Δ^3-0-2-isocephem-4-carboxylic acid]",,,,,,,,,,,,,,,,,,,,,MIC (D. pneumoniae A9585; [12]): 32 µg/mL; MIC (S. aureus Smith A9537; [13]): 125 µg/mL; MIC (Sal. enteritidis A9531; [14]): > 125 µg/mL; MIC (E. coli Juhl A15119; [15]): > 125 µg/mL
